Data set [1] deals with rat ‘resident-intruder’ model of agitation or aggression. Kind of data set: Rat resident-intruder model of agitation or aggression. Particulars: for sublingual vs intravenous route: duration of the behavioral indices of aggression and agitation: doses of 1 and 1.5 μg/kg, student t-test. The format is in vivo. The source says:
The resident-intruder model is an established preclinical model of aggression and agitation, and allows spontaneous and natural expression of both offensive aggression/agitation and defensive behavior in laboratory rodents in a semi natural laboratory setting.
Animals: 12-13 week old male Wistar rats weighing 380-400 g were used as resident males. 7-8 weeks old male rats weighing 280-300 g were used as the “intruder”. Resident rats were housed with female rats for 8 days to establish territoriality. The intruder rats were housed in groups of 3 with other male rats of similar age/body weight. All animals were maintained in a controlled environment with 22±3° C. temperature, 50±20% humidity, a light/dark cycle of 12 hours each and 15-20 fresh air changes per hour and had access to food and water ad-libitum. All animal experiments were conducted in accordance with the guidelines of the Committee for the Purpose of Control and Supervision of Experiments on Animals (CPCSEA), Government of India the Association for Assessment and Accreditation of Laboratory Animal Care international (AAALAC).
Dilutions were prepared fresh every day prior to dosing using 0.9% normal saline from the formulation 4 for the entire study.
Experimental Procedure: Following acclimatization for a period of 3-5 days, each resident male rat was housed with a female rat for 8 days. On day 8, basal aggression in the resident males was tested by exposing them to an “intruder rat” for 10 minutes. […] These animals were then randomized using body weight stratification method. […] Animals were housed with the female rat for an additional day. On day 9, the resident animal was paired with intruder animal of an appropriate bodyweight such that the body weight of the resident was always higher than the intruder. This was to facilitate dominant, aggressive behavior in the resident animals. After randomization, animals were assigned a permanent number. Cages were identified by cage cards indicating the study number, study code, group number, sex, dose, cage number and animal number details.
For sublingual dosing, the rats were held in one hand and using a blunt spatula the tongue was moved to one side of the mouth. […] Diazepam was used as a reference compound and was dosed intraperitoneally. Vehicle controls were treated with 0.9% saline administered sublingually or intravenously.
The behavior of the resident rat was recorded using an overhead video camera for 15 minutes and offline behavioral analysis was done using the Noldus Ethovision XT software. To distinguish the resident rat from the intruder rat in the video recording, the intruder rat was marked with non-toxic paint.
Statistical Analysis: Statistical analysis was performed using validated statistical software (GraphPad Prism 6). Data is represented as Mean±SEM. One-way ANOVA (analysis of variance) followed by “Dunnett's Multiple Comparison Test” at 95% confidence interval was applied for comparison of the relevant groups. p<0.05 was considered significant.

The conditions of data set [2]: rat, in vivo. The protocol: Objective: To estimate Dexmedetomidine levels in rat plasma samples obtained after dosing animals via intravenous and sublingual routes at doses of 0.5, 1, 1.5 and 3 μg/kg.
Blood was collected under mild isoflurane anesthesia from the retro-orbital plexus at 0, 5, 15, 30, 60 and 120 minutes post dosing. Plasma was separated and stored at −80° C. until Dexmedetomidine concentration was analyzed.
Analytical Methods: Samples were analysed by using Agilent 1290 Infinity II HPLC system coupled to AB Sciex Triple Quad instrument (API-5000). Chromatographic separation was done using Agilent Zorbax Eclipse plus C18 column (50*2.1 mm, 1.8 μm) in gradient mode. The mobile phase consisted of 10 mM Ammonium Formate with pH 3.5 (Mobile phase A) and 100% Acetonitrile (Mobile phase B). The column temperature was 40° C. and flow rate was 0.35 mL/min. The MS instrument was operated in the positive mode (ESI+). For analysis, 2 μL of sample was injected into the LC-MS/MS instrument. Auto sampler temperature was 7° C.
WCX SPE 96 well plate was used for sample preparation. 50 μl of plasma sample was used for extraction. Along with study samples, one set of linearity and two sets of quality controls (QC) were also processed.
Sample pretreatment: To 50 μl of plasma, 10 μl of tolbutamide working solution was added (Tolbutamide 250 ng/ml). After mixing, […], of buffer solution (10 mM Ammonium Formate pH 3.5) was added. Contents were vortex mixed and loaded to preconditioned SPE plate.
After placing the cartridges in the negative pressure SPE unit, they were conditioned by passing 200 μl of 100% methanol followed by 200 μl of water. The pretreated plasma samples were then loaded to the pre-conditioned cartridges.
After loading pretreated plasma samples, cartridges were washed with 100 μl of 0.1% ammonia solution. Finally, bound analyte was eluted with 50 μl of 0.1% formic acid in acetonitrile. This step was repeated twice for complete elution. Final eluent volume was 100 μL. To 100 μL of eluent, 50 μL of 10 mM ammonium formate (pH 3.5) was added samples were vortex mixed and transferred to a 96-well HPLC sample plate (Agilent) and submitted for LC-MS/MS analysis. For LC-MS/MS analysis, 2 μL of sample was injected. Calibration standards and QCs were processed the same way as done for study samples.
The calibration curve was fitted by linear regression. The concentrations in the QC and test samples (pg/mL) were obtained from the Analyst software based on the calibration curve. […] 2) The correlation coefficient (r) of the calibration curve must be greater than or equal to 0.99. 3) At least two-thirds (4 out of 6) QC samples must be within ±20% relative error (accuracy)

SMILES strings stand for the structures. “Also recorded” adds a separate entry of the source. Counter-ions that a name gives are not always drawn. Like-named read-outs stand apart in the source and are kept apart here.

As for `Cc1cccc([C@H](C)c2cnc[nH]2)c1C` [Dexmedetomidine hydrochloride, (S)-4-[1-(2,3-Dimethylphenyl)ethyl]-3H-imidazole], the “doses that effectively reduced the behavioral indices of aggression and agitation without majorly impacting the neutral behaviors” value in data set [1] (administered sublingually or intravenously, doses used 0.5-3 μg/kg) lay within 1 to 1.5 µg/kg. For the same molecule, the “various indices of agitation and aggression” value in data set [1] (conclusion, rat resident intruder model) is “effectively reduces various indices of agitation and aggression”. Besides, the “sublingual vs intravenous route: duration of the behavioral indices of aggression and agitation” value was “correlates with intravenously administered Dexmedetomidine hydrochloride” in data set [1] and “No significant differences (i.e. similar effect via sublingual” in data set [1] (listed as dexmedetomidine hydrochloride). In addition, in data set [1] (intravenous, 3 μg/kg, FIG. 2B), the “latency to attack the intruder rat, significance vs vehicle controls” value is on record as “significant compared to vehicle controls”. For the same molecule, the “neutral behavior: immobile/quiet time” value in data set [1] (intravenous, 3 μg/kg, FIG. 3F) is “significantly increased the immobile/quiet time”. Moreover, the “neutral behaviors: grooming and exploration compared to vehicle controls” value in data set [1] (intravenous, 0.5-3 μg/kg, except at a dose of 3 μg/kg) is “did not significantly affect grooming and exploration”; in data set [1] (sublingual, 0.5-3 μg/kg, except exploration at 1.5 and 3 μg/kg, FIGS. 3A and 3B), “No significant changes”. For the same molecule, the “indices of aggressive and agitated behaviors” value in data set [1] (intravenous, 0.5-3 μg/kg, FIG. 1C, 1D) was “reduced all the indices of aggressive and agitated behaviors”. Further, the “anogenital sniffing, biting and attacking compared to vehicle controls” value in data set [1] (intravenous, doses above 0.5 μg/kg, FIG. 1C, 1D) is “significant reduction”. Moreover, the “latency to attack the intruder rat compared to the vehicle control group” value in data set [1] (prior treatment, dose related manner, route not stated) is recorded as “significant increase in the latency to attack the intruder rat”. In addition, the “neutral behavior: exploration compared to vehicle controls” value in data set [1] (sublingual, 1.5 μg/kg & 3 μg/kg, FIGS. 3A and 3B) was “reduction in exploration”. Also, in data set [1] (sublingual, 0.5-3 μg/kg, 15 minutes prior to testing, FIG. 1A, 1B), the “frequency and duration of aggressive and agitated behaviors (anogenital sniffing, chasing, biting, attacking)” value was “reduced the frequency and duration of these behaviors in a dose related manner; also recorded: dose related reduction”. The “latency to attack the intruder rat” value in data set [1] (sublingual, 0.5-3 μg/kg, dose related, FIG. 2A) is “increase in the latency to attack the intruder rat”. Further, the “chasing and attacking compared to vehicle control group” value in data set [1] (sublingual, 0.5-3 μg/kg, FIG. 1A, 1B) was “Significant reduction”. Moreover, the “neutral behavior: immobile/quiet time compared to vehicle controls” value in data set [1] (sublingual, 0.5-3 μg/kg, FIG. 3C) was “no significant effect”. For the same molecule, the “neutral behavior of animals” value in data set [1] (sublingually administered) is listed as “No changes were observed”. Also, the “Plasma concentrations between 15 to 30 min” value in data set [2] is 43±13.5 to 90±12.1. The “effect of dose on plasma concentrations” value in data set [2] is on record as “dose-related effect on plasma concentrations”; in data set [2] (iv), “dose-dependent effect on plasma concentrations”. Further, the “plasma concentrations between 15 to 30 min” value in data set [2] is given as 27±7.1-114±1.7.

Take `CN1C(=O)CN=C(c2ccccc2)c2cc(Cl)ccc21` [Diazepam]: the “indices of aggressive and agitated behaviors” value in data set [1] (3 mg/kg, i.p., FIG. 1A-1D) was “significant reduction in all the indices of aggressive and agitated behaviors”. In addition, the “attacking behavior / latency to attack” value in data set [1] (3 mg/kg, i.p., FIGS. 2A and 2B) is “complete lack of attacking behavior”. In addition, the “frequency and duration of neutral behaviors” value in data set [1] (3 mg/kg, ip) was “significantly reduced the frequency and duration of all neutral behaviors”.

The record behind these values is patent US11931340B2, “Use of sublingual dexmedetomidine for the treatment of agitation” (BioXcel Therapeutics, Inc., priority 2016, dated 2024).
